From patent US20210018841A1, “COMPOSITION FOR RESIST UNDERLAYER FILM FORMATION AND PATTERN FORMATION METHOD” (Mitsubishi Gas Chemical Company, Inc., priority 2018, published 2021)

Assay: Solubility in a safe solvent (PGMEA)
Format: physicochemical
Settings: ultrasonic waves at 23° C. for 30 minutes, visually observed
Experimental: The solubility of an obtained compound in a safe solvent (propylene glycol monomethyl ether acetate (PGMEA)) was evaluated as follows. The compound was precisely weighed in a test tube, and PGMEA was added to a predetermined concentration. Next, ultrasonic waves were applied at 23° C. for 30 minutes with an ultrasonic cleaning machine, and the subsequent state of the liquid was visually observed. The concentration (% by mass) at which the compound was completely dissolved was defined as the amount of dissolution. […] B: amount of dissolution was 3.0% by mass or more and 5.0% by mass or less. C: amount of dissolution was less than 3.0% by mass.

## CCO[Te](OCC)(OCC)OCC [TOX-1, tetraethoxytellurium(IV)]
  Solubility of tellurium containing compound: A (amount of dissolution was 5.0% by mass or more)
